Common to all, as to assay type: functional
The test system of test [1] is DU-145. Nature of the test: Cytotoxicity towards DU145 human prostate cancer cell was expressed as median effect dose (MED).
Test [2] relates to DU-145. Nature of the test: Cytotoxicity was evaluated against DU-145 human prostate cancer cells at 2 log dose.
Test [3] relates to DU-145. Nature of the test: Cytotoxicity was evaluated against DU-145 human prostate cancer cells at 1.4 log dose.
For test [4], the system named is DU-145. Nature of the test: Cytotoxicity was evaluated against DU-145 human prostate cancer cells at 1.7 log dose.
The subject of test [5] is DU-145. Nature of the test: Cytotoxicity was evaluated against DU-145 human prostate cancer cells at 20 uM concentration.
Test [6] deals with DU-145. Nature of the test: Cytotoxicity was evaluated against DU-145 human prostate cancer cells at 0.7 log dose.
In test [7] the test system is DU-145. Nature of the test: Cytotoxicity was evaluated against DU-145 human prostate cancer cells at 0.3 log dose.
Test [8] has as its system DU-145. Nature of the test: Cytotoxicity was evaluated against DU-145 human prostate cancer cells at 50 uM concentration.
Test [9] has as its system DU-145. Nature of the test: Cytotoxicity was evaluated against DU-145 human prostate cancer cells at 15 uM concentration.
The test system of test [10] is DU-145. Nature of the test: Cytotoxicity was evaluated against DU-145 human prostate cancer cells at 10 uM concentration.
The test system of test [11] is DU-145. Nature of the test: Cytotoxicity was evaluated against DU-145 human prostate cancer cells at 13 uM concentration.
Test [12] relates to DU-145. Nature of the test: Cytotoxicity was evaluated against DU-145 human prostate cancer cells at 1.5 log dose.
For test [13], the system named is DU-145. Nature of the test: Cytotoxicity was evaluated against DU-145 human prostate cancer cells at 60 uM concentration.
In test [14] the test system is DU-145. Nature of the test: Cytotoxicity was evaluated against DU-145 human prostate cancer cells at 100 uM concentration.
For test [15], the system named is DU-145. Nature of the test: Cytotoxicity was evaluated against DU-145 human prostate cancer cells at 35 uM concentration.
Test [16] has as its system DU-145. Nature of the test: Cytotoxicity was evaluated against DU-145 human prostate cancer cells at 110 uM concentration.
The subject of test [17] is DU-145. Nature of the test: Cytotoxicity was evaluated against DU-145 human prostate cancer cells at 180 uM concentration.

Each structure is given as a SMILES string. Values joined by “and” are separate entries in the source; they are usually repeats but may differ in a detail not shown here. Equal values may be shown once.

Consider `CC(=O)N[C@@H](C(=O)NC1C(O)OC(CO)C(O)C1O)C(C)(C)SN=O` (stereo not given in full), for which, in the test with DU-145 [1], the MED was determined as 32 µM. The Log effect with DU-145 [2] is 0 and -0.01.

`CC(=O)N[C@@H](C(=O)N[C@]1(CO)O[C@H](CO)[C@@H](O)[C@@H]1O)C(C)(C)SN=O`: the Log effect in the test on DU-145 [3] is reported as 0.6; with DU-145 [4], 0.9; in the test with DU-145 [6], -0.03; with DU-145 [7], -0.06. In addition, the MED in the test on DU-145 [1] is 8.5 µM. Besides, the Surviving fraction was 0.45 in the test with DU-145 [5]; 0.2 in the test with DU-145 [8]; 0.5 in the test with DU-145 [9]; 0.6 in the test with DU-145 [10]; 0.55 in the test with DU-145 [11].

With `CC(=O)N[C@@H](C(=O)O)C(C)(C)SN=O`, the Log effect with DU-145 [3] and in the test with DU-145 [12] was 0 throughout. Moreover, the MED with DU-145 [1] turned out to be 110 µM. Further, the Surviving fraction in the test on DU-145 [13] came out at 1; in the test with DU-145 [14] it was 0.6; in the test with DU-145 [15], 1; in the test on DU-145 [16], 0.5; in the test on DU-145 [17], 0.2.

These data come from ChEMBL document CHEMBL1131826, “Targeting nitric oxide to cancer cells: cytotoxicity studies of glyco-S-nitrosothiols” (1999).
